Test results reported in publication PMC3050433, “The effects of maribavir on the autophosphorylation of ganciclovir resistant mutants of the cytomegalovirus UL97 protein” (Herpesviridae, 2010).
Numbering of substitutions follows the chain as printed. Entries after “also recorded” stand apart in the source; their conditions may differ.

Tests used:
Details in all cases: wild type normalised to 100%
UL97 K355Q = target: T1, UL97 K355Q (Human cytomegalovirus, UniProt Q68101, K355Q); assay: GCV phosphorylation in baculovirus-infected Sf21 insect cells, K355Q; type: cell-based
T1 construct: PCR reaction to generate the full length UL97; honey bee melittin secretion signal (N); expressed in transfected cells; host or cells: Sf21 insect cells infected with recombinant baculovirus
T1 sequence (Q68101 1-707 K355Q): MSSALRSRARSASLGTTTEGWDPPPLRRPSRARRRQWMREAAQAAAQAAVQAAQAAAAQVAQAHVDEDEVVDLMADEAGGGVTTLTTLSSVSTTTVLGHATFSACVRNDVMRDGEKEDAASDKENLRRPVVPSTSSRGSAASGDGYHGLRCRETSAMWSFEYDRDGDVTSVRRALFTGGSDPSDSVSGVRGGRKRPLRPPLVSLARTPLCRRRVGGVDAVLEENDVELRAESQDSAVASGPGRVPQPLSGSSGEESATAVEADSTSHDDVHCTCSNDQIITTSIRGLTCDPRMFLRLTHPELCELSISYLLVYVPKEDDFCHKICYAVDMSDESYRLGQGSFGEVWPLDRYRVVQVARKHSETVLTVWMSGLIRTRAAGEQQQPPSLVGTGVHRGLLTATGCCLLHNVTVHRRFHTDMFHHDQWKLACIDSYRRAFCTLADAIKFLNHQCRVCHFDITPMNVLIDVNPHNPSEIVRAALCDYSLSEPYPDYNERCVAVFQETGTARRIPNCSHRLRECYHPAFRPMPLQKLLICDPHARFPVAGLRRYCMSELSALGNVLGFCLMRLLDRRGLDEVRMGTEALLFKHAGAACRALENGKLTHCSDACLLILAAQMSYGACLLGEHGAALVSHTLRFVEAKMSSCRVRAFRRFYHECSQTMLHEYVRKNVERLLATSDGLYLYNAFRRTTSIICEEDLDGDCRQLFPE
Procedure: (§1) Sf21 insect cells were infected with wild type or mutant UL97 recombinant baculoviruses at an m.o.i. of 10. After 48 h incubation at 28°C, the culture medium was replaced with fresh medium containing 1.0 mM GCV and [^3H] GCV (0.55 Mbq, Moravek Radiochemicals, California, USA) After a further 24 hours of incubation, nucleotides were harvested by acid hydrolysis (0.5 M perchloric acid), neutralisation to pH 7.5 (2.5 M KOH, 1.5 M KH2PO4) and centrifugation (13000 × g). 50 μl aliquots of supernatant were spotted onto 20 mm diameter DEAE-coated DE81 chromatographic paper discs and the monophosphorylated GCV allowed to bind. The discs were washed twice in 3 ml 10 mM ammonium acetate for 10 minutes and twice in 95% ethanol for 10 minutes. After drying 5 ml of sigmafluor was added (Sigma Chemicals, Dorset, UK) and the radioactivity determined by liquid scintillation counting.

UL97 N461G = assay: GCV phosphorylation in baculovirus-infected Sf21 insect cells, N461G; type: cell-based, human cytomegalovirus
Procedure: as §1

UL97 D456A = target: T2, UL97 D456A (Human cytomegalovirus, UniProt Q68101, D456A); assay: GCV phosphorylation in baculovirus-infected Sf21 insect cells, D456A; type: cell-based
T2 construct: PCR reaction to generate the full length UL97; honey bee melittin secretion signal (N); made in house; host or cells: Sf21 insect cells, recombinant baculovirus (pMelBac C)
T2 sequence (Q68101 1-707 D456A): T1 sequence (Q68101 1-707 K355Q) with Q355K, D456A
Procedure: as §1

`Nc1nc(O)c2ncn(COC(CO)CO)c2n1` [GCV, ganciclovir] was tested, and the “GCV phosphorylation relative to wild type UL97” value (UL97 K355Q) was “unable to phosphorylate GCV; also recorded: complete loss of GCV kinase activity”, the “GCV phosphorylation relative to wild type UL97” value (UL97 N461G) was “complete loss of GCV kinase activity” and the “GCV phosphorylation relative to wild type UL97” value (UL97 D456A) was “no effect on GCV phosphorylation”.
